Measured values published in patent US20220380314A1, “SUBSTITUTED, SATURATED AND UNSATURATED N-HETEROCYCLIC CARBOXAMIDES AND RELATED COMPOUNDS FOR THEIR USE IN THE TREATMENT OF MEDICAL DISORDERS” (Bial - R&D Investments, S.A., priority 2019, published 2022).
Structures can show the parent of a compound that is named as a salt.

Target: T1, acid ceramidase (hACR) (Homo sapiens, UniProt Q13510)
T1 construct: expressed in transfected cells; cell lysate used
T1 sequence (Q13510 143-395 limits assumed): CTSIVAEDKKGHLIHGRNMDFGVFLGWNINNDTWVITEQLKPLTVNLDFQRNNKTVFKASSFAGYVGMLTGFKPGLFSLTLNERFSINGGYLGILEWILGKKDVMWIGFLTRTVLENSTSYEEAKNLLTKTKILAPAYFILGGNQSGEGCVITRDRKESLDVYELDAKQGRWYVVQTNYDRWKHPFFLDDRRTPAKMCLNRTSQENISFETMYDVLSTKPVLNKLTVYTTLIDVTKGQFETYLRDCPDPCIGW
T1 sequence (Q13510 22-142 limits assumed): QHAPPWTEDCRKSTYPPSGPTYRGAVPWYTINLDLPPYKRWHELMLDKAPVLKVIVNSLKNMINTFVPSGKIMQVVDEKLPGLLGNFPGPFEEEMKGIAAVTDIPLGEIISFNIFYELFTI
Test: Acid ceramidase inhibition, biochemical fluorescent assay with cell lysates overexpressing acid ceramidase, substrate Rbm14-12
Details: cell lysates overexpressing acid ceramidase; 1 hr preincubation at RT; pH 4.5; substrate Rbm14-12 6.3 μM; read-out: hACR IC50
Protocol: The ability of exemplary compounds to inhibit acid ceramidase was measured.
Cell lysates overexpressing acid ceramidase were used as the enzyme source for compound potency determination in a biochemical fluorescent assay. Briefly, compounds were preincubated with 10 µg protein of cell lysates in a dose-response manner for 1 hr at RT in the assay buffer containing 25 mM NaAC and 100 mM NaCl, pH 4.5. The reaction was initiated by the addition of substrate Rbm14-12 at a final concentration of 6.3 μM. The reaction was run at RT for 1 hr before it was stopped by the addition of the stopping buffer containing 20% methanol (v/v), 1 mg/ml NaIO4, 0.1 M glycine, pH 10.6. The samples were incubated with the stopping buffer at RT for 1 hr to allow the fluorescent product to be formed. Finally the plate was read with SpectraMax i3 plate reader (Molecular Devices) at ex360 nm and em446 nm. Data were collected and used to determine the IC50 values of compounds by curve fitting to the four-parameter inhibition equation.
The symbol “A” indicates inhibition of less than 0.2 μM; the symbol “B” indicates inhibition in the range of 0.2 μM up to 1 μM; and the symbol “C” indicates inhibition of greater than 1 μM.

Row | Structure (SMILES) | IC50 [nM]
1 | CC1CCC(c2ccccc2)CN1C(=O)NCCCCc1ccccc1 (mixture of isomers) [Example 80, 2-Methyl-5-phenyl-N-(4-phenylbutyl)piperidine-1-carboxamide] | < 200
2 | CC1C(c2ccccc2)CCCN1C(=O)NCCCCc1ccccc1 (mixture of isomers) [Example 81, 2-Methyl-3-phenyl-N-(4-phenylbutyl)piperidine-1-carboxamide] | 200 to 1000
3 | CCCCCNC(=O)N1[C@@H]2CC[C@H]1CC(c1ccccc1)C2 (mixture of isomers) [Example 82, endo- and exo-N-Pentyl-3-phenyl-8-azabicyclo[3.2.1]octane-8-carboxamide] | > 1000
4 | CC1(C)CC(N2CCCCC2c2ccccc2)CCN1C(=O)NCCCCc1ccccc1 (mixture of isomers) [Example 91, 2,2-Dimethyl-N-(4-phenylbutyl)-4-(2-phenyl-1-piperidyl)piperidine-1-carboxamide] | > 1000
5 | CC1(C)CC(N2CCCC(c3ccccc3)C2)CCN1C(=O)NCCCCc1ccccc1 (mixture of isomers) [Example 92, 2,2-Dimethyl-N-(4-phenylbutyl)-4-(3-phenyl-1-piperidyl)piperidine-1-carboxamide] | > 1000
6 | CC1CC(N2CCCCC2)CCN1C(=O)NCCCCc1ccccc1 (mixture of isomers) [Example 94, 2-Methyl-N-(4-phenylbutyl)-4-(1-piperidyl)piperidine-1-carboxamide] | < 200
7 | CCCCCNC(=O)N1CCC(N2CCCCC2)C[C@@H]1C (mixture of isomers) [Example 97, (2S)-Methyl-N-pentyl-4-(1-piperidyl)piperidine-1-carboxamide] | 200 to 1000
8 | CC1(C)CCc2c(-c3ccccn3)cccc2N1C(=O)NCCc1ccccc1 [Example 5, 2,2-Dimethyl-N-phenethyl-5-(pyridin-2-yl)-3,4-dihydroquinoline-1(2H)-carboxamide] | > 1000
9 | CCCCCNC(=O)N1CCC(c2ccccc2)CC1(C)C (stereo not drawn) [Example 76, 2,2-Dimethyl-N-pentyl-4-phenylpiperidine-1-carboxamide] | > 1000
10 | CC1(C)CC(c2ccccc2)CCN1C(=O)NC1CCOCC1 (stereo not drawn) [Example 78, 2,2-Dimethyl-4-phenyl-N-tetrahydropyran-4-yl-piperidine-1-carboxamide] | > 1000
11 | CCCCCNC(=O)N1CCC(N2CCCCC2)CC1(C)C (stereo not drawn) [Example 84, 2,2-Dimethyl-N-pentyl-4-(1-piperidyl)piperidine-1-carboxamide] | < 200
12 | CCCCCCCNC(=O)N1CCC(N2CCCCC2)CC1(C)C (stereo not drawn) [Example 85, N-Heptyl-2,2-dimethyl-4-(1-piperidyl)piperidine-1-carboxamide] | > 1000
13 | CN1CCN(C2CCN(C(=O)NCCCCc3ccccc3)C(C)(C)C2)CC1 (stereo not drawn) [Example 87, 2,2-Dimethyl-4-(4-methylpiperazin-1-yl)-N-(4-phenylbutyl)piperidine-1-carboxamide dihydrochloride] | < 200
14 | CC1(C)CCCCN1C(=O)NCCCCc1ccccc1 [Example 90, 2,2-Dimethyl-N-(4-phenylbutyl)piperidine-1-carboxamide carboxamide] | > 1000
15 | CC1(C)CC(N2CCC(c3ccccc3)CC2)CCN1C(=O)NCCCCc1ccccc1 (stereo not drawn) [Example 93, 2,2-Dimethyl-N-(4-phenylbutyl)-4-(4-phenyl-1-piperidyl)piperidine-1-carboxamide] | < 200
16 | CCCCCNC(=O)N1CCC(N2CCCCC2)CC1C (stereo not drawn) [Example 95, 2-Methyl-N-pentyl-4-(1-piperidyl)piperidine-1-carboxamide] | 200 to 1000
17 | CCCCCNC(=O)N1CCC(N2CCCCC2)C[C@H]1C (stereo partly drawn) [Example 96, (2R)-Methyl-N-pentyl-4-(1-piperidyl)piperidine-1-carboxamide hydrochloride salt] | < 200
18 | CCCCCNC(=O)N1C(C)CC(N2CCCCC2)CC1C (stereo not drawn) [Example 98, 2,6-Dimethyl-N-pentyl-4-(1-piperidyl)piperidine-1-carboxamide hydrochloride] | < 200

Continued, values first:

Row | IC50 [nM] | Structure (SMILES)
19 | < 200 | CC[C@H](C)NC(=O)N1C(c2ccc(OC)cc2)COCC1(C)C (mixture of isomers) [Example 155, (5R) AND (5S)-5-(4-Methoxyphenyl)-3,3-dimethyl-N-[(1S)-1-methylpropyl]morpholine-4-carboxamide]
20 | < 200 | CCCCCNC(=O)N1C(c2ccc(F)cc2)COCC1(C)C (single isomer, unassigned) [Example 138, (5S) or (5R)-5-(4-Fluorophenyl)-3,3-dimethyl-N-pentylmorpholine-4-carboxamide]
21 | < 200 | CCCCCNC(=O)N1C(c2ccc(F)cc2)COCC1(C)C (single isomer, unassigned) [Example 139, (5S) or (5R)-5-(4-fluorophenyl)-3,3-dimethyl-N-pentylmorpholine-4-carboxamide]
22 | < 200 | CC1(C)CCC(N2CCCCC2)CN1C(=O)NCCCCc1ccccc1 (stereo not drawn) [Example 99, 2,2-Dimethyl-N-(4-phenylbutyl)-5-(1-piperidyl)piperidine-1-carboxamide]
23 | 200 to 1000 | CC1CCC(N2CCCCC2)CN1C(=O)NCCCCc1ccccc1 (stereo not drawn) [Example 100, 2-Methyl-N-(4-phenylbutyl)-5-(1-piperidyl)piperidine-1-carboxamide]
24 | 200 to 1000 | CC1C(N2CCCCC2)CCCN1C(=O)NCCCCc1ccccc1 (stereo not drawn) [Example 101, 2-Methyl-N-(4-phenylbutyl)-3-(1-piperidyl)piperidine-1-carboxamide]
25 | > 1000 | CCCCCNC(=O)N1[C@@H]2CC[C@H]1C[C@H](N1CCCCC1)C2 [Example 102, Exo-N-Pentyl-3-(1-piperidyl)-8-azabicyclo[3.2.1]octane-8-carboxamide]
26 | < 200 | CC1(C)CN(c2ccccc2)CCN1C(=O)NCCCCc1ccccc1 [Example 103, 2,2-Dimethyl-4-phenyl-N-(4-phenylbutyl)piperazine-1-carboxamide]
27 | > 1000 | CC1(C)CN(c2ccccn2)CCN1C(=O)NCCCCc1ccccc1 [Example 104, 2,2-Dimethyl-N-(4-phenylbutyl)-4-(2-pyridyl)piperazine-1-carboxamide]
28 | > 1000 | CC1(C)CN(c2cncnc2)CCN1C(=O)NCCCCc1ccccc1 [Example 105, 2,2-Dimethyl-N-(4-phenylbutyl)-4-pyrimidin-5-yl-piperazine-1-carboxamide]
29 | < 200 | CC1(C)C(=O)N(c2ccccc2)CCN1C(=O)NCCCCc1ccccc1 [Example 106, 2,2-Dimethyl-3-oxo-4-phenyl-N-(4-phenylbutyl)piperazine-1-carboxamide]
30 | 200 to 1000 | CCCCCNC(=O)N1CCN(c2ccccc2)C(=O)C1(C)C [Example 107, 2,2-Dimethyl-3-oxo-N-pentyl-4-phenylpiperazine-1-carboxamide]
31 | > 1000 | CC1(C)C(=O)N(c2ccccc2)CCN1C(=O)NCCOCc1ccccc1 [Example 108, N-(2-Benzyloxyethyl)-2,2-dimethyl-3-oxo-4-phenylpiperazine-1-carboxamide]
32 | < 200 | COc1cc(N2CCN(C(=O)NCCCCc3ccccc3)C(C)(C)C2=O)ccc1F [Example 109, 4-(4-Fluoro-3-methoxy-phenyl)-2,2-dimethyl-3-oxo-N-(4-phenylbutyl)piperazine-1-carboxamide]
33 | < 200 | CC1(C)CN(C2CCCCC2)CCN1C(=O)NCCCCc1ccccc1 [Example 110, 4-Cyclohexyl-2,2-dimethyl-N-(4-phenylbutyl)piperazine-1-carboxamide]
34 | < 200 | CC1(C)CN(C2CC2)CCN1C(=O)NCCCCc1ccccc1 [Example 111, 4-Cyclopropyl-2,2-dimethyl-N-(4-phenylbutyl)piperazine-1-carboxamide]
35 | < 200 | CCCCCNC(=O)N1CCN(C2CC2)CC1(C)C [Example 112, 4-Cyclopropyl-2,2-dimethyl-N-pentylpiperazine-1-carboxamide]
36 | 200 to 1000 | C[C@@H]1CN(C(=O)NCCCCc2ccccc2)[C@@H](C)CN1C1CC1 [Example 113, (2S,5R)-4-Cyclopropyl-2,5-dimethyl-N-(4-phenylbutyl)piperazine-1-carboxamide]
37 | > 1000 | CCCCCNC(=O)N1C[C@@H](C)N(C2CC2)C[C@@H]1C [Example 114, (2S,5R)-4-cyclopropyl-2,5-dimethyl-N-pentylpiperazine-1-carboxamide]
38 | 200 to 1000 | CC(C)[C@@H]1CN(C2CC2)CCN1C(=O)NCCCCc1ccccc1 [Example 116, (2R)-4-Cyclopropyl-2-isopropyl-N-(4-phenylbutyl)piperazine-1-carboxamide]
39 | > 1000 | CC(C)[C@H]1CN(C2CC2)CCN1C(=O)NCCCCc1ccccc1 [Example 117, (2S)-4-Cyclopropyl-2-isopropyl-N-(4-phenylbutyl)piperazine-1-carboxamide]
